#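 Interpolation was linear, between the two tested concentrations surrounding the appropriate level; five concentrations were tested over 48 hours in 96-well plates. Here, GI50 denotes the concentration required for 50% inhibition of growth. At the TGI there is no net growth.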
# Assays:
# Assay in all cases: NCI-60 cell line screen, 48 h
# [1] = system: KM12 colon
# [2] = system: A498 renal
# [3] = system: IGROV1 ovarian
# [4] = system: SK-OV-3 ovarian
# [5] = system: K-562 leukemia
# [6] = system: COLO 205 colon
# [7] = system: CAKI-1 renal
# [8] = system: MCF7 breast
# [9] = system: M14 melanoma
# [10] = system: HOP-92 NSCLC
# [11] = system: LOX IMVI melanoma
# [12] = system: OVCAR-3 ovarian
SMILES,TGI [1] [µM],TGI [2] [µM],TGI [3] [µM],TGI [4] [µM],TGI [5] [µM],TGI [6] [µM],TGI [7] [µM],TGI [8] [µM],TGI [9] [µM],TGI [10] [µM],TGI [11] [µM],TGI [12] [µM],GI50 [1] [µM],GI50 [3] [µM],GI50 [6] [µM],GI50 [8] [µM]
Cc1ccccc1OC(C)C(=O)NN1C(=O)CSC1c1ccc(Cl)cc1 (stereo not drawn),> 100,72.3,> 100,> 92.5,> 77.1,> 100,> 100,> 100,> 100,> 100,> 58.8,> 93.6,–,–,–,–
COc1ccc2nc(-c3ccccc3)cc(OCC(=O)O)c2c1,> 100,> 100,> 100,> 100,> 100,> 100,> 100,> 100,> 100,> 100,> 100,> 100,–,–,–,–
CC(C)CCC[C@@H](C)[C@H]1CC[C@H]2[C@@H]3CC[C@H]4C[C@@H](CCC=C(c5cc(Cl)c(O)c(C(=O)O)c5)c5cc(Cl)c(O)c(C(=O)O)c5)CC[C@]4(C)[C@H]3CC[C@]12C,> 100,> 100,> 100,> 100,> 100,> 100,> 100,> 100,> 100,> 100,> 100,> 100,–,–,–,–
COC(=O)C1Cc2cc3c(cc2C1=O)CCCC3 (stereo not drawn),> 100,> 100,> 100,> 100,> 100,> 100,> 100,> 100,> 100,–,> 100,> 100,–,–,–,–
CN(C)c1ccc(C=NCC2CCCN3CCCCC23)cc1 (stereo not drawn),> 100,–,> 100,> 100,–,> 100,> 100,> 100,> 100,–,> 100,> 100,–,–,–,–
O=C(OC1C2OC(=O)c3cc(O)c(O)c(O)c3Oc3cc4c(c(O)c3O)-c3c(cc(O)c(O)c3O)C(=O)OCC3OC(O)C(OC(=O)c5cc(O)c(O)c(O)c5Oc5cc6c(c(O)c5O)-c5c(cc(O)c(O)c5O)C(=O)OC1C(COC6=O)OC2O)C(OC(=O)c1cc(O)c(O)c(O)c1)C3OC4=O)c1cc(O)c(O)c(O)c1 (stereo not drawn),16.2,–,> 100,44.4,42.8,54,> 100,> 100,> 100,58.5,59.7,> 100,–,–,–,–
c1ccc2c(c1)c1c(n2CCOCCN2CCCC2)CCCC1,–,–,56.4,87.7,31.5,38.2,96.9,31.3,29.5,86.9,33.9,> 100,–,–,–,–
COC(CN(C(C)=O)C1CCC2(SCCS2)c2[nH]c3ccccc3c21)OC (stereo not drawn),> 100,> 100,> 100,–,> 100,> 100,> 100,> 100,> 100,> 100,1.71,> 100,–,–,–,–
O=C(O)CCC(=O)c1ccc2c(c1)C(C(=O)O)CC2 (stereo not drawn),> 100,> 100,> 100,> 100,> 100,> 100,–,> 100,> 100,> 100,> 100,> 100,–,–,–,–
Cn1c2ccccc2c2c3c(c4c5ccccc5n(C)c4c21)C(=O)NC3=O,> 100,> 44.2,> 71.8,> 100,> 100,> 100,> 100,> 100,> 100,> 100,> 100,–,–,–,–,–
CC(C)(C)OC(=O)N(CCCCNC(=O)OCc1ccccc1)CCCNC(=O)OCc1ccccc1,> 100,> 100,> 100,> 100,> 100,> 100,–,> 100,> 100,99.1,–,> 100,–,–,–,–
[O-][N+](=Nc1ccccc1CO)c1ccccc1CO,> 100,> 100,–,> 100,> 100,> 100,> 100,> 100,> 100,–,> 100,> 100,–,–,–,–
COc1c(/C=C/C(C)(C)O)cc(C2CC(=O)c3c(O)cc(O)cc3O2)cc1CC=C(C)C (stereo not drawn),20.7,16.8,–,17.6,35.7,17.7,> 50,15.3,16,17.8,11.6,–,–,–,–,–
Cc1c2c3ccccc3nc-2n(C)c2ccccc12,7.91,–,12.2,7.22,5.28,–,–,5.98,20.5,13.1,–,5.69,–,–,–,–
COc1ccc(-n2[nH]nc(C(N)=O)c2=O)cc1,> 100,> 100,> 100,> 100,> 100,> 100,> 100,> 100,> 100,–,> 100,13.8,–,–,–,–
CN(C)CCNC(=O)c1ccc(NCCCN(C)CCCNc2ccc(C(=O)NCCN(C)C)c3[nH]c4ccccc4c(=O)c23)c2c(=O)c3ccccc3[nH]c12,0.627,0.502,2.07,0.427,–,0.294,2.59,0.44,1.46,3.82,0.179,0.694,–,–,–,–
C=C1C(=O)O[C@H]2C[C@@]3(COC(C)=O)C=COC=C(COC(=O)C(C)C)C3CC12 (stereo partly drawn),> 100,–,> 100,–,> 100,> 100,> 100,> 100,–,–,> 100,> 100,–,–,–,–
CO/N=C(/C)c1cccc(Nc2nc3ccccc3c3[nH]c4ccccc4c23)c1,14.2,–,30.6,40.3,> 100,20.3,24.2,19.9,21.1,–,25,20.6,–,–,–,–
Cc1ccc2c(c1)C(=O)c1nc(C)ccc1C2=O,> 100,> 100,66.5,> 100,> 100,42.7,76.9,> 100,> 100,–,> 100,> 100,–,–,–,–
Cc1ccc(/C=N/n2c(-c3ccc(C)cc3)n[nH]c2=O)cc1,> 100,95.1,> 100,66.9,> 100,> 100,> 100,> 100,> 100,> 100,–,> 100,–,–,–,–

SMILES,TGI [1] [µM],TGI [2] [µM],TGI [3] [µM],TGI [4] [µM],TGI [5] [µM],TGI [6] [µM],TGI [7] [µM],TGI [8] [µM],TGI [9] [µM],TGI [10] [µM],TGI [11] [µM],TGI [12] [µM],GI50 [1] [µM],GI50 [3] [µM],GI50 [6] [µM],GI50 [8] [µM]
CCCCCCCCCCCCCCCCNC(=O)C(=O)/C=C(\O)c1ccc(C)cc1,> 10,> 10,> 10,> 10,> 10,> 10,> 10,> 10,> 10,–,> 10,> 10,–,–,–,–
Cc1c2ccncc2cc2c1[nH]c1ccccc12,23.9,12.2,65.2,26.1,6.01,7.72,10.5,23.5,–,15.2,7.35,25.8,–,–,–,–
O=C1C(Br)=C(c2ccccc2)O/C1=C/C(=O)c1ccc(Br)cc1,> 100,> 100,> 100,–,> 100,> 100,35,> 100,> 100,> 100,–,> 100,–,–,–,–
O=C1/C(=C\c2cccc(Oc3ccccc3)c2)SC(c2ccccc2)N1c1ccccc1 (stereo not drawn),> 100,> 100,–,> 100,> 100,> 100,> 100,> 100,> 100,> 100,> 100,> 100,–,–,–,–
CC1=NC2=Nc3nc(C)cc[n+]3CN2C=C1,–,> 100,> 100,> 100,–,> 100,> 100,> 100,> 100,> 100,> 100,> 100,–,–,–,–
CC(=O)OCC1OC(n2cc(F)c(=O)[nH]c2=O)C(NC(=O)OCc2ccccc2)C(OC(C)=O)C1OC(C)=O (stereo not drawn),> 100,> 100,> 100,> 100,> 100,–,> 100,> 100,–,> 100,> 100,> 100,–,–,–,–
O=C1c2cc(Cl)ccc2NC(=NC2CCCC2)C2CSCN12 (stereo not drawn),> 100,> 100,> 100,> 100,> 100,> 100,> 100,> 100,> 100,–,> 100,> 100,–,–,–,–
C/C(=N\N=C(\N)SB(F)F)c1ccc2ccccc2c1,> 100,> 100,> 100,> 100,> 100,> 100,> 100,> 100,> 100,> 100,> 100,–,–,–,–,–
COc1cc2c(cc1OC)C(=O)N(c1ccc(O)cc1)C2=O,–,> 100,> 100,> 100,> 100,> 100,> 100,> 100,> 100,> 100,> 100,> 100,–,–,–,–
CC(=N\N)/C(C)=N/N=C(C)/C(C)=N/N,> 100,> 100,> 100,> 100,–,> 100,> 100,> 100,> 100,> 100,> 100,> 100,–,–,–,–
CCOC(=O)c1[nH]c(Br)c(-c2ccc(OC)c(OC)c2)c1Br,–,0.194,11.9,–,12.7,1.07,–,17.2,16,–,–,–,0.0172,0.0494,0.02,0.338
CS(=O)(=O)OCCN(CCOS(C)(=O)=O)c1ccc(C=Nc2cccc(Cl)c2)cc1,> 100,13.8,> 87.8,–,> 100,6.56,1.56,> 100,55.5,> 92.7,15.2,51.8,–,–,–,–
CCOC(=O)c1c(N=P(c2ccccc2)(c2ccccc2)c2ccccc2)nnc(-c2ccccc2)c1-c1ccccc1,> 100,99.3,> 100,> 100,> 100,> 100,–,> 100,> 100,> 100,> 100,> 100,–,–,–,–
O=C(/C=C/c1ccc(-c2ccccc2)cc1)NCc1ccc(C(=O)NCc2ccccc2)cc1,> 100,> 100,> 100,> 100,–,> 100,> 100,> 100,> 100,> 100,> 100,> 100,–,–,–,–
c1cc2c(s1)-c1sccc1C21OCCO1,> 100,–,–,–,> 100,> 100,> 100,> 100,> 100,–,> 100,> 100,–,–,–,–
COC(=O)CCC1=C(CC(=O)OC)C(C)(OC)N=C1NC(=O)OCc1ccccc1 (stereo not drawn),> 100,> 100,> 100,> 100,> 100,> 100,> 100,> 100,> 100,–,> 100,–,–,–,–,–
O=C(NCCN1CCOCC1)c1cn2c(ccc3sc4ccccc4c(=O)c32)n1,> 100,> 100,> 100,–,> 100,> 100,> 100,> 100,–,> 100,47.4,> 100,–,–,–,–
CC1(C)OC2[C@@H](CO[C@@]3([C@@H](O)CCO)OC(C)(C)O[C@@H]23)O1 (stereo partly drawn),> 100,–,> 100,–,> 100,> 100,> 100,> 100,> 100,> 100,> 100,> 100,–,–,–,–
Cc1nc(CC#N)n[nH]1,> 100,–,> 100,> 100,> 100,> 100,–,> 100,> 100,> 100,> 100,> 100,–,–,–,–

# — PubChem BioAssay (NCI)
